Like-named read-outs stand apart in the source and are kept apart here.

As usually defined, the Ki is a measure of affinity in units of concentration, obtained from inhibition or displacement. In general, IC50 refers to the concentration that inhibits the measured activity by half.

One series addresses Kv11.1 (hERG) (Homo sapiens (Human), UniProt Q12809). In words: Kv11.1 (hERG) ion channel activity (patch clamp assay), HEK293 cells transfected with hERG gene. For orientation: Block of hERG is tested as a sign of cardiac risk.
The target of series [1] is DNA-PK phosphorylation at serine 2056 (Homo sapiens (Human), UniProt P78527). Nature of the series: DNA-PK phosphorylation at serine 2056 (cellular), bleomycin-treated HCT116 cells, ELISA. The series is classed as cell-based. The note with it: read-out: IC50 pDNA-PK. The gist of the method: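 Chemiluminescent ELISA read-out; phospho-specific signal normalised to total DNA-PKcs. Cells (HCT116) exposed 6 h to test compound plus 10 μM bleomycin to induce double-strand breaks; DMSO control served as blank.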

In the next series the target is DNA-PK (Homo sapiens (Human), UniProt P78527). Nature of the series: DNA-PK assay (biochemical), flashplate 33P-ATP kinase assay. An outline of the steps: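 Radiometric kinase reaction in streptavidin-coated flashplates, stopped with 200 mM EDTA, then 30 min room-temperature incubation and saline washes.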
The mark [2] stands for this setting: read-out: Ki [Kv1.11 hERG], hERG patch clamp assay (cells without asterisk).
Where [3] appears, read: cellular DNA-PK phosphorylation at serine 2056, HCT116.
The mark [4] stands for this setting: read-out: Ki [Kv1.11 hERG], patch clamp, HEK293 transfected with hERG gene.
Setting [5] is: cellular, HCT116 cells, 10 μM bleomycin, six hours.
[6] abbreviates: Ki [Kv1.11 hERG], hERG patch clamp assay (cells without asterisk).
[7] abbreviates: Ki [Kv1.11 hERG], patch clamp, HEK293 transfected with hERG gene.

Chain of Kv11.1 (hERG) (Q12809 whole entry): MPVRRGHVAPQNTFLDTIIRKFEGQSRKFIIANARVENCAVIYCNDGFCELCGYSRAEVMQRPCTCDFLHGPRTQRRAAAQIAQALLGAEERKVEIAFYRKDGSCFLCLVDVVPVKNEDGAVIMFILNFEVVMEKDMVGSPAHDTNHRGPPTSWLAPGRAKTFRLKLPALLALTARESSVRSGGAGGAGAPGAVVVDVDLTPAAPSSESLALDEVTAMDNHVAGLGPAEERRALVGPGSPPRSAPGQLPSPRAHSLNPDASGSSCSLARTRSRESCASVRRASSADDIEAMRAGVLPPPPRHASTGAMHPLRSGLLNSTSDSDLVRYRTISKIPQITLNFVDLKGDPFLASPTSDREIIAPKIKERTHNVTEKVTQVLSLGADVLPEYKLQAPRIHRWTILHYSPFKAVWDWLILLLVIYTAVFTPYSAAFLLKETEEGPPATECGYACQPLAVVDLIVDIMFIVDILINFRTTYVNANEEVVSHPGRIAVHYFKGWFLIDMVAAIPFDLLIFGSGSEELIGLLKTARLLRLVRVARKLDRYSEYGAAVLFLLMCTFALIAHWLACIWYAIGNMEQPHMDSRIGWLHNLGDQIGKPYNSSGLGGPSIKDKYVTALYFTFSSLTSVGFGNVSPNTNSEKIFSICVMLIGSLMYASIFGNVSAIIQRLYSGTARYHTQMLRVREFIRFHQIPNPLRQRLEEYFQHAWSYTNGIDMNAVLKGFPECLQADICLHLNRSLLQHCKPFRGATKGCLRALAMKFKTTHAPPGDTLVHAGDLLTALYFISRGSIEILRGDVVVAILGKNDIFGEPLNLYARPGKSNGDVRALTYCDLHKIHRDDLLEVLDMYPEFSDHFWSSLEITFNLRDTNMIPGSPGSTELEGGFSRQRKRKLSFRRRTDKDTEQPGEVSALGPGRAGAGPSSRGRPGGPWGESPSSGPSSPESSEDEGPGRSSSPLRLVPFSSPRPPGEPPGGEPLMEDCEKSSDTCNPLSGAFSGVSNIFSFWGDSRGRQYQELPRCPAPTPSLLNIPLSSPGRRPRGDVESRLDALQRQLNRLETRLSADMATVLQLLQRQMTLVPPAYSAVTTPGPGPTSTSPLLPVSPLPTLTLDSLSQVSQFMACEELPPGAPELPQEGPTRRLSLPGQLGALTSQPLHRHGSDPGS

With `OC(c1cc(-c2ncnc3cc(N4CCOCC4)ccc23)ccc1Cl)c1nccn2cccc12` (stereo not drawn) [Example 361, (2-Chloro-5-(7-morpholin-4-yl-quinazolin-4-yl)-phenyl]pyrrolo[1,2-a]-pyrazin-1-ylmethanol], the Ki at Kv11.1 (hERG) (setting [2]) is under 10000 nM. The IC50 in series [1] (setting [3]) was 500 to 5000 nM; on DNA-PK (biochemical DNA-PK assay), 3 to 7 nM.
The matching figures for `OC(c1cc(-c2ncnc3cc(N4CCOCC4)ccc23)c(F)cc1F)c1ncnc2ccoc12` (stereo not drawn) [Example 444, [2,4-Difluoro-5-(7-morpholin-4-yl-quinazolin-4-yl)-phenyl]furo[3,2-d}-pyrimidin-4-yl-methanol]: over 25000 nM, 500 to 5000 nM and under 3 nM.
The matching figures for `Cc1nccnc1C(O)c1cc(-c2ncnc3cc(N4CCOCC4)ccc23)ccc1Cl` (stereo not drawn) [Example 426, [2-Chloro-5-(7-morpholin-4-yl-quinazolin-4-yl)-phenyl]-(3-methyl-pyrazin-2-yl)-methanol]: over 25000 nM, 500 to 5000 nM and 7 to 30 nM.
With `OC(c1ccc(F)c(-c2ncnc3cc(N4CCOCC4)sc23)c1)c1nccnc1Cl` (single isomer, unassigned) [Example 23, (3-Chloro-pyrazin-2-yl)-[4-fluoro-3-(6-morpholin-4-yl-thieno-[3,2-d}pyrimidin-4-yl)-phenyl]methanol], the Ki on Kv11.1 (hERG) (setting [4]) was over 25000 nM. For the same molecule, the IC50 fell in the range of 5000 to 10000 nM in series [1] (setting [5]) and 7 to 30 nM on DNA-PK (enzymatic, 5 μM ATP).
Take `O=c1ccc(C(O)c2cc(-c3ncnc4cc(N5CCOCC5)ccc34)c(F)cc2Cl)n[nH]1` (stereo not drawn) [Example 92, 3-[[2-Chloro-4-fluoro-5-(7-morpholino-quinazolin-4-yl)phenyl]-hydroxymethyl]-1H-pyridazin-6-one]: the Ki at Kv11.1 (hERG) (setting [4]) was over 25000 nM. Moreover, the IC50 is under 500 nM in series [1] (setting [5]) and under 3 nM at DNA-PK (enzymatic, 5 μM ATP).
Take `COC(=O)COc1ccc(C(O)c2cc(-c3ncnc4cc(N5CCOCC5)ccc34)c(F)cc2Cl)nn1` (stereo not drawn) [Example 114, (6-{[2-Chloro-4-fluoro-5-(7-morpholin-4-yl-quinazolin-4-yl)-phenyl]hydroxy-methyl}pyridazin-3-yl-oxy)acetic acid methyl ester]: at Kv11.1 (hERG) (setting [4]), the Ki was over 25000 nM. The IC50 in series [1] (setting [5]) was 10000 to 30000 nM; against DNA-PK (enzymatic, 5 μM ATP) it was 3 to 7 nM.
For the molecule `Cc1nccnc1/C(C(=O)O)=C1/C=CC(=O)C(c2ncnc3cc(N4CCOCC4)ccc23)=C1` [Example 331, (3-methyl-pyrazin-2-yl)-[3-(7-morpholin-4-ylquinazolin-4-yl)-4-oxocyclohexa-2,5-dien-(E)-ylidene]-acetic acid], the Ki at Kv11.1 (hERG) (setting [2]) was over 25000 nM. The figures for the IC50 (in series [1] (setting [3]); against DNA-PK (biochemical DNA-PK assay)) were 5000 to 10000 nM and 7 to 30 nM, respectively.
With `Cn1nc(C(C(N)=O)c2cc(-c3ncnc4cc(N5CCOCC5)ccc34)c(F)cc2Cl)ccc1=O` (stereo not drawn) [Example 311, 2-[2-Chloro-4-fluoro-5-(7-morpholin-4-yl-quinazolin-4-yl)-phenyl]-2-(1-methyl-6-oxo-1,6-dihydro-pyridazin-3-yl)-acetamide], on Kv11.1 (hERG) (setting [2]), the Ki was over 25000 nM. The IC50 in series [1] (setting [3]) was 10000 to 30000 nM; at DNA-PK (biochemical DNA-PK assay) it was over 30 nM.
On to `Cc1nc([C@H](O)c2cnc(F)c(-c3ncnc4cc(N5CCOCC5)ncc34)c2)sc1C` [Example 204, (R)-(4,5-Dimethyl-thiazol-2-yl)-[6-fluoro-5-(7-morpholin-4-yl-pyrido[4,3-d}-pyrimidin-4-yl)-pyridin-3-yl]-methanol], for which, at Kv11.1 (hERG) (Ki [Kv1.11 hERG], Table 5), the Ki was 10000 to 15000 nM. Further, the IC50 in series [1] (Table 5, HCT116 cells) was 10000 to 30000 nM; at DNA-PK (Table 5), over 30 nM.
`Cc1nccnc1[C@H](O)c1ccc(F)c(-c2ncnc3cc(N4CCOCC4)cc(F)c23)c1` [Example 248, (R)-[4-Fluoro-3-(5-fluoro-7-morpholin-4-ylquinazolin-4-yl)-phenyl]-(3-methyl-pyrazin-2-yl)-methanol]: the Ki on Kv11.1 (hERG) (setting [2]) was over 25000 nM. For the same molecule, the IC50 in series [1] (setting [3]) was under 500 nM; against DNA-PK (biochemical DNA-PK assay), under 3 nM.
As for `OC(c1cc(-c2ncnc3cc(N4CCOCC4)ccc23)ccc1Cl)c1ncnc2ccoc12` (stereo not drawn) [Example 415, [2-Chloro-5-(7-morpholin-4-yl-quinazolin-4-yl)-phenyl]furo[3,2-d}-pyrimidin-4-yl-methanol], the Ki at Kv11.1 (hERG) (setting [2]) lay in the range of 10000 to 15000 nM. Also, the IC50 in series [1] (setting [3]) is under 500 nM; against DNA-PK (biochemical DNA-PK assay), 3 to 7 nM.
As to `OCc1csc([C@H](O)c2cc(-c3ncnc4cc(N5CCOCC5)ccc34)c(F)cc2Cl)n1` [Example 186, (R)-[2-Chloro-4-fluoro-5-(7-morpholin-4-yl-quinazolin-4-yl)-phenyl]-(4-hydroxymethyl-thiazol-2-yl)-methanol], the Ki at Kv11.1 (hERG) (read-out: Ki [Kv1.11 hERG], Table 5) was under 10000 nM. Also, the IC50 in series [1] (Table 5, HCT116 cells) is 5000 to 10000 nM; on DNA-PK (Table 5), 7 to 30 nM.
On to `OC(c1cc(-c2ncnc3cc(N4CCOCC4)ccc23)ccc1Cl)c1ncncc1F` (stereo not drawn) [Example 412, [2-Chloro-5-(7-morpholin-4-yl-quinazolin-4-yl)-phenyl]-(5-fluoro-pyrimidin-4-yl)-methanol], for which the Ki on Kv11.1 (hERG) (setting [6]) lay in the range of 15000 to 25000 nM. In addition, the IC50 in series [1] (setting [3]) was in the range of 5000 to 10000 nM; on DNA-PK (biochemical DNA-PK assay), 7 to 30 nM.
As for `COc1cnc(C(O)c2ccc(F)c(-c3ncnc4cc(N5CCOCC5)ccc34)c2)cn1` (stereo not drawn) [Example 60, [4-Fluoro-3-(7-morpholin-4-yl-quinazolin-4-yl)phenyl]-(5-methoxypyrazin-2-yl)methanol], on Kv11.1 (hERG) (setting [7]), the Ki was in the range of 15000 to 25000 nM. For the same molecule, the IC50 in series [1] (setting [5]) fell in the range of 500 to 5000 nM; against DNA-PK (enzymatic, 5 μM ATP), 7 to 30 nM.
In turn, `NC(=O)C(c1ccc(F)c(-c2ncnc3cc(N4CCOCC4)ccc23)c1)c1c(F)cncc1F` (stereo not drawn) [Example 321, 2-(3,5-Difluoro-pyridin-4-yl)-2-[4-fluoro-3-(7-morpholin-4-yl-quinazolin-4-yl)-phenyl]acetamide] had a Ki on Kv11.1 (hERG) (setting [6]) of 15000 to 25000 nM. The IC50 in series [1] (setting [3]) was 500 to 5000 nM; against DNA-PK (biochemical DNA-PK assay) it was 7 to 30 nM.
The matching figures for `Cc1cncnc1C(O)c1cc(-c2ncnc3cc(N4CCOCC4)ccc23)ccc1F` (stereo not drawn) [Example 392, [2-Fluoro-5-(7-morpholin-4-yl-quinazolin-4-yl)-phenyl]-(5-methyl-pyrimidin-4-yl)-methanol]: 15000 to 25000 nM, 500 to 5000 nM and 3 to 7 nM.
As for `Cn1nc(C(O)c2cc(-c3ncnc4cc(N5CCOCC5)ccc34)c(F)cc2Cl)ccc1=O` (single isomer, unassigned) [Example 45, 6-{[2-Chloro-4-fluoro-5-(7-morpholin-4-yl-quinazolin-4-yl)phenyl]-hydroxymethyl}-2-methyl-2H-pyridazin-3-one], the Ki at Kv11.1 (hERG) (setting [4]) was in the range of 15000 to 25000 nM. In addition, the IC50 in series [1] (setting [5]) is under 500 nM; on DNA-PK (enzymatic, 5 μM ATP), under 3 nM.
`CC(O)c1csc(C(O)c2cc(-c3ncnc4cc(N5CCOCC5)ccc34)c(F)cc2Cl)n1` (stereo not drawn) [Example 201, 1-(2-{[2-Chloro-4-fluoro-5-(7-morpholin-4-yl-quinazolin-4-yl)-phenyl]hydroxy-methyl}thiazol-4-yl)-ethanol] displayed a Ki at Kv11.1 (hERG) (Ki [Kv1.11 hERG], Table 5) of 15000 to 25000 nM. For the same molecule, the IC50 lay in the range of 500 to 5000 nM in series [1] (Table 5, HCT116 cells) and 3 to 7 nM on DNA-PK (Table 5).
Regarding `OC(c1cc(-c2ncnc3cc(N4CCOCC4)ccc23)c(F)cc1Cl)c1nccn2ccnc12` (single isomer, unassigned) [Example 396], at Kv11.1 (hERG) (setting [2]), the Ki is over 25000 nM. Moreover, the IC50 in series [1] (setting [3]) was under 500 nM; against DNA-PK (biochemical DNA-PK assay) it was 3 to 7 nM.
At Kv11.1 (hERG) (setting [7]), `COc1cc(C(O)c2ccc(F)c(-c3ncnc4cc(N5CCOCC5)ccc34)c2)c(Cl)nn1` (stereo not drawn) [Example 7, (3-Chloro-6-methoxy-pyridazin-4-yl)-[4-fluoro-3-(7-morpholin-4-yl-quinazolin-4-yl)phenyl]-methanol] gave a Ki of 15000 to 25000 nM. Further, the IC50 was under 500 nM in series [1] (setting [5]) and 3 to 7 nM at DNA-PK (enzymatic, 5 μM ATP).
With `COc1ccnnc1C(O)c1ccc(F)c(-c2ncnc3cc(N4CCOCC4)ccc23)c1` (stereo not drawn) [Example 18, [4-Fluoro-3-(7-morpholin-4-yl-quinazolin-4-yl)phenyl]-(4-methoxy-pyridazin-3-yl)methanol], on Kv11.1 (hERG) (setting [7]), the Ki lay within 15000 to 25000 nM. In addition, the IC50 in series [1] (setting [5]) was 500 to 5000 nM; against DNA-PK (enzymatic, 5 μM ATP), under 3 nM.
For the molecule `[2H]c1c(N2CCOCC2)cc2ncnc(-c3cc(C(O)c4nccnc4C)ccc3F)c2c1[2H]` (stereo not drawn) [Example 226, [3-(5,6-Dideuterio-7-morpholino-quinazolin-4-yl)-4-fluorophenyl]-(3-melhylpyrazin-2-yl)-methanol], on Kv11.1 (hERG) (setting [6]), the Ki is over 25000 nM. Also, the IC50 in series [1] (setting [3]) is under 500 nM; against DNA-PK (biochemical DNA-PK assay), 3 to 7 nM.
Take `Cc1nccnc1Cc1ccc(F)c(-c2ncnc3cc(N4CCOCC4)ccc23)c1` [Example 349, 4-[2-Fluoro-5-(3-methyl-pyrazin-2-ylmethyl)phenyl]-7-morpholin-4-yl-quinazoline]: the Ki on Kv11.1 (hERG) (setting [2]) was over 25000 nM. The IC50 is under 500 nM in series [1] (setting [3]) and 3 to 7 nM on DNA-PK (biochemical DNA-PK assay).
Consider `OC(c1cc(-c2ncnc3cc(N4CCOCC4)ccc23)ccc1Cl)c1ncnn2cccc12` (stereo not drawn) [Example 362, [2-Chloro-5-(7-morpholin-4-yl-quinazolin-4-yl)-phenyl]pyrrolo[2,1-f]-[1,2,4]triazin-4-yl-methanol], for which the Ki on Kv11.1 (hERG) (setting [2]) is under 10000 nM. Further, the IC50 fell in the range of 500 to 5000 nM in series [1] (setting [3]) and 3 to 7 nM against DNA-PK (biochemical DNA-PK assay).
For the molecule `Cn1cnc2c(C(O)c3ccc(F)c(-c4ncnc5cc(N6CCOCC6)ccc45)c3)ncnc21` (stereo not drawn) [Example 420, [4-Fluoro-3-(7-morpholin-4-yl-quinazolin-4-yl)-phenyl]-(9-methyl-9H-purin-6-yl)-methanol], the Ki at Kv11.1 (hERG) (setting [2]) was over 25000 nM. Also, the IC50 in series [1] (setting [3]) fell in the range of 5000 to 10000 nM; at DNA-PK (biochemical DNA-PK assay), 7 to 30 nM.

The values above are taken from patent US9732094B2, “Arylquinazolines” (Merck Patent GmbH, priority 2013, dated 2017).
